Among the data in patent publication US10344019B2 (priority 2010, dated 2019) are EC50 values, retold here.

Holding throughout (experiment): microbe, parasite or virus in culture
Holding throughout (assay type): cell-based

The subject of test [1] is HCV 2a JFH-1 Rluc cells (dicistronic genotype 2a JFH-1 replicon, RLuc reporter). Conditions: genotype 2a JFH-1 replicon, read-out: 2a JFH. An outline of the steps:
(§1)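 Replicon cells stably carrying the listed RLuc-encoding dicistronic replicons were seeded and treated with DMSO serial dilutions of compound (10 mM stocks) diluted into culture medium. After 72 h, cells were lysed and Renilla luciferase activity measured. EC50 was derived by non-linear regression.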

Test [2] relates to HCV 1b RLuc cells (dicistronic genotype 1b Con1 replicon, RLuc reporter). Conditions: for EC50: Hepatitis C virus, read-out: 1b (nM). An outline of the steps: as §1
Test [3] concerns HCV 3a RLuc cells (NS5A chimeric genotype 1b Con1 replicon with consensus genotype 3a NS5A gene). An outline of the steps: as §1
The test system of test [4] is HCV 4a Rluc cells (NS5A chimeric genotype 1b Con1 replicon with genotype 4a NS5A gene). Conditions: Hepatitis C virus, read-out: 4a. An outline of the steps: as §1
For test [5], the system named is HCV 1a RLuc cells (dicistronic genotype 1a H77 replicon, RLuc reporter). Conditions: read-out: 1a. An outline of the steps:
as §1

The mark [6] stands for this setting: Hepatitis C virus, RLuc reporter.
The mark [7] stands for this setting: Hepatitis C virus, read-out: 3a, genotype 3a NS5A chimeric 1b Con1 replicon.
Setting [8] is: Hepatitis C virus, genotype 1a H77 replicon, RLuc reporter.
Setting [9] is: Hepatitis C virus, 72 h, Table 2, 72 hours.
Where [10] appears, read: Hepatitis C virus, read-out: 3a, Table 2, genotype 3a NS5A chimeric replicon.
[11] abbreviates: Hepatitis C virus, 72 h, Table 2, genotype 1a H77 replicon, 72 hours.
The mark [12] stands for this setting: Hepatitis C virus, 72 h, Table 1, 72 hours.
The mark [13] stands for this setting: Hepatitis C virus, read-out: 3a, Table 1, genotype 3a NS5A chimeric replicon.
Setting [14] is: Hepatitis C virus, 72 h, Table 1, genotype 1a H77 replicon, 72 hours.
Setting [15] is: Hepatitis C virus, read-out: 3a, genotype 3a replicon.
Setting [16] is: Hepatitis C virus, genotype 1a replicon.

The structures appear in SMILES notation. pEC50: −log10 of the molar value. Like-named read-outs stand apart in the source and are kept apart here. Where only a bound is given, the exact number is not on record here.

As to `COC(=O)N[C@H](C(=O)N1CCC[C@H]1c1ncc(-c2ccc3cc(-c4ccc(-c5cnc([C@@H]6CC(O)CN6C(=O)[C@H](NC(=O)OC)c6ccccc6)[nH]5)cc4)ccc3c2)[nH]1)C(C)C` (stereo partly shown) [Example 256], the pEC50 in test [1] (setting [6]), in test [3] (setting [7]), in test [4] and in test [5] (setting [8]) was 9.00 to 12.00 in each case. The EC50 in test [2] came to 0.015 nM.
With `COC(=O)NC(C(=O)N1CCC[C@H]1c1nc2ccc3cc(-c4ccc5cc(-c6cnc([C@@H]7[C@H]8CC[C@H](C8)N7C(=O)[C@H](NC(=O)OC)c7ccccc7)[nH]6)ccc5c4)ccc3c2[nH]1)[C@@H](C)OC` (stereo partly shown) [Example 70], the pEC50 in test [1] (setting [9]) was 7.36 to 9.00; in test [3] (setting [10]), 8.30 to 9.00; in test [4], 9.00 to 12.00; in test [5] (setting [11]) it was 9.00 to 12.00. The EC50 in test [2] (72 h) was 0.008 nM.
For the molecule `COC(=O)NC(C(=O)N1CCC[C@H]1c1ncc(-c2ccc3c(c2)C(F)(F)c2cc(-c4ccc5nc([C@@H]6CCCN6C(=O)[C@@H](NC(=O)OC)[C@@H](C)OC)[nH]c5c4)ccc2-3)[nH]1)C(C)C` (stereo partly shown) [Example 264], the pEC50 is 7.36 to 9.00 in test [1] (setting [6]), 8.30 to 9.00 in test [3] (setting [7]), 9.00 to 12.00 in test [4] and 9.00 to 12.00 in test [5] (setting [8]). In addition, the EC50 in test [2] stood at 0.006 nM.
For the molecule `COC(=O)N[C@H](C(=O)N1CCC[C@H]1c1ncc(-c2ccc3c(c2)CCc2cc(-c4ccc5nc([C@@H]6[C@H]7CC[C@H](C7)N6C(=O)[C@H](NC(=O)OC)c6ccccc6)[nH]c5c4)ccc2-3)[nH]1)C1CCOCC1` [Example 78], the pEC50 in test [1] (setting [9]), in test [3] (setting [10]), in test [4] and in test [5] (setting [11]) was 9.00 to 12.00 in each case. For the same molecule, the EC50 in test [2] (72 h) stood at 0.013 nM.
With `COC(=O)N[C@H](C(=O)N1CCC[C@H]1c1ncc(-c2ccc3cc(-c4ccc(-c5cnc([C@@H]6CC7(CN6C(=O)[C@H](NC(=O)OC)c6ccccc6)OCCO7)[nH]5)cc4)ccc3c2)[nH]1)C1CCOCC1` [Example 47], the pEC50 in test [1] (setting [9]) was 9.00 to 12.00; in test [3] (setting [10]), 8.30 to 9.00; in test [4], 9.00 to 12.00; in test [5] (setting [11]) it was 9.00 to 12.00. Further, the EC50 in test [2] (72 h) worked out at 0.037 nM.
Consider `COC(=O)N[C@H](C(=O)N1CCC[C@H]1c1ncc(-c2ccc3c(c2)cc(C#N)c2cc(-c4cnc([C@@H]5CCCN5C(=O)[C@@H](NC(=O)OC)C(C)C)[nH]4)ccc23)[nH]1)C(C)C` [Example 274], for which the pEC50 in test [1] (setting [6]) is 7.36 to 9.00; in test [3] (setting [7]), 8.30 to 9.00; in test [4] it was 9.00 to 12.00; in test [5] (setting [8]) it was 7.36 to 9.00. Besides, the EC50 in test [2] amounted to 0.011 nM.
Turning to `COC(=O)N[C@@H](C(=O)N1CCC[C@H]1c1ncc(-c2ccc3c(c2)COc2c-3ccc3cc(-c4cnc([C@@H]5CCCN5C(=O)OCc5ccccc5)[nH]4)ccc23)[nH]1)c1ccccc1` [Example 5], the pEC50 in test [1] (setting [12]) is 7.36 to 9.00; in test [3] (setting [13]), 9.00 to 12.00; in test [4] it was 9.00 to 12.00; in test [5] (setting [14]), < 7.36. Besides, the EC50 in test [2] (72 h) turned out to be 0.037 nM.
Turning to `COC(=O)N[C@H](C(=O)N1CCC[C@H]1c1nc2c([nH]1)-c1ccc(-c3ccc4cc(-c5cnc([C@@H]6CCCN6C(=O)[C@H](NC(=O)OC)c6ccccc6)[nH]5)ccc4c3)cc1CC2)C1CCOCC1` [Example 279], the pEC50 in test [1] (RLuc reporter) was 7.36 to 9.00; in test [2] (read-out: 1b), 10.51; in test [3] (read-out: 3a, genotype 3a NS5A chimeric 1b Con1 replicon), 9.00 to 12.00; in test [4], 9.00 to 12.00; in test [5] (genotype 1a H77 replicon, RLuc reporter) it was 7.36 to 9.00.
As to `COC(=O)N[C@H](C(=O)N1CCC[C@H]1c1ncc(-c2ccc3c4ccc(-c5cnc([C@@H]6CCCN6C(=O)[C@@H](NC(=O)OC)C(C)C)[nH]5)cc4c4nc5ccccc5nc4c3c2)[nH]1)C(C)C` [Example 19], the pEC50 in test [1] (setting [12]) is 7.36 to 9.00; in test [3] (setting [13]) it was < 8.30; in test [4], 9.00 to 12.00; in test [5] (setting [14]), 7.36 to 9.00. For the same molecule, the EC50 in test [2] (72 h) was determined as 0.01 nM.
As to `COC(=O)N[C@H](C(=O)N1CCC[C@H]1c1ncc(-c2cc3c4c(c2)CCc2cc(-c5cnc([C@@H]6CCCN6C(=O)[C@@H](NC(=O)OC)C(C)C)[nH]5)cc(c2-4)CC3)[nH]1)C(C)C` [Example 20], the pEC50 in test [1] (setting [12]), in test [3] (setting [13]), in test [4] and in test [5] (setting [14]) was 9.00 to 12.00 in each case. In test [2] (72 h), the EC50 is 0.021 nM.
Take `COC(=O)N[C@H](C(=O)N1CCC[C@H]1c1nc2ccc3cc(-c4ccc(-c5cnc([C@@H]6CC7(CN6C(=O)[C@H](NC(=O)OC)c6ccccc6)OCCO7)[nH]5)cc4)ccc3c2[nH]1)C1CCOCC1` [Example 297]: the pEC50 in test [1] (Hepatitis C virus), in test [3] (setting [15]), in test [4] and in test [5] (setting [16]) was 9.00 to 12.00 in each case. Besides, the EC50 in test [2] was 0.357 nM.
For `COC(=O)N[C@@H](C(=O)N1CCC[C@H]1c1ncc(-c2ccc3cc(-c4ccc5c(c4)CCc4nc([C@@H]6CCCN6C(=O)[C@@H](NC(=O)C6CC6)C6CCOCC6)[nH]c4-5)ccc3c2)[nH]1)c1ccccc1` [Example 280], the pEC50 is 7.36 to 9.00 in test [1] (setting [6]), 9.00 to 12.00 in test [3] (setting [7]), 9.00 to 12.00 in test [4] and 7.36 to 9.00 in test [5] (setting [8]). The EC50 in test [2] amounted to 0.047 nM.
Take `COC(=O)N[C@H](C(=O)N1CCC[C@H]1c1nc(Cl)c(-c2ccc(-c3ccc(-c4[nH]c([C@@H]5CCCN5C(=O)[C@@H](NC(=O)OC)C5CCOCC5)nc4Cl)cc3)cc2)[nH]1)C1CCOCC1` [Example 353]: the pEC50 in test [1] (Hepatitis C virus), in test [3] (setting [15]), in test [4] and in test [5] (setting [16]) was 9.00 to 12.00 each time. Also, the EC50 in test [2] stood at 0.493 nM.
With `COC(=O)N[C@@H](C(=O)N1CCC[C@H]1c1ncc(-c2ccc3cc(-c4ccc5c(c4)CCc4nc([C@@H]6CCCN6C(=O)[C@@H](NC(=O)OC(C)(C)C)C6CCOCC6)[nH]c4-5)ccc3c2)[nH]1)c1ccccc1` [Example 269], the pEC50 in test [1] (setting [6]) is 7.36 to 9.00; in test [3] (setting [7]), < 8.30; in test [4] it was 9.00 to 12.00; in test [5] (setting [8]), < 7.36. In test [2], the EC50 turned out to be 0.076 nM.
With `COC(=O)N[C@H](C(=O)N1[C@@H]2CC[C@@H](C2)[C@H]1c1nc2ccc3cc(-c4ccc(-c5cnc([C@@H]6C[C@H]7C[C@H]7N6C(=O)[C@@H](NC(=O)OC)C6CCOCC6)[nH]5)cc4)ccc3c2[nH]1)C(C)C` [Example 367], the pEC50 in test [1] (Hepatitis C virus), in test [3] (setting [15]), in test [4] and in test [5] (setting [16]) was 9.00 to 12.00 each time. For the same molecule, the EC50 in test [2] amounted to 0.049 nM.
As to `COC(=O)N[C@H](C(=O)N1CCC[C@H]1c1nc2ccc3cc(-c4ccc5cc(-c6cnc([C@@H]7COCCN7C(=O)[C@H](NC(=O)OC)c7ccccc7)[nH]6)ccc5c4)ccc3c2[nH]1)C(C)C` [Example 216], the pEC50 in test [1] (setting [6]), in test [3] (setting [7]), in test [4] and in test [5] (setting [8]) was 9.00 to 12.00 in each case. In test [2], the EC50 came to 0.006 nM.
Turning to `COC(=O)NC(C(=O)N1CCC[C@H]1c1ncc(-c2ccc3c(c2)OCc2cc(-c4ccc5nc([C@@H]6[C@H]7CC[C@H](C7)N6C(=O)[C@H](NC(=O)OC)c6ccccc6)[nH]c5c4)ccc2-3)[nH]1)[C@@H](C)OC` (stereo in doubt) [Example 294], the pEC50 in test [1] (Hepatitis C virus), in test [3] (setting [15]), in test [4] and in test [5] (setting [16]) was 9.00 to 12.00 each time. For the same molecule, the EC50 in test [2] was 0.01 nM.
For `COC(=O)N[C@H](C(=O)N1[C@@H]2CC[C@@H](C2)[C@H]1c1ncc(-c2ccc(-c3ccc4cc(-c5cnc([C@@H]6CCCN6C(=O)[C@H](NC(=O)OC)c6ccccc6)[nH]5)ccc4c3)cc2)[nH]1)C(C)C` [Example 42], the pEC50 in test [1] (setting [9]) was 9.00 to 12.00; in test [3] (setting [10]) it was 8.30 to 9.00; in test [4] it was 9.00 to 12.00; in test [5] (setting [11]) it was 9.00 to 12.00. Besides, the EC50 in test [2] (72 h) came to 0.008 nM.
Consider `COC(=O)N[C@H](C(=O)N1CCC[C@H]1c1ncc(-c2ccc3c(c2)CCc2cc(-c4cnc([C@@H]5[C@H]6CC[C@H](C6)N5C(=O)[C@@H](c5ccccc5)N5CCOCC5)[nH]4)ccc2-3)[nH]1)C(C)C` [Example 295], for which the pEC50 is 9.00 to 12.00 in test [1] (Hepatitis C virus), 9.00 to 12.00 in test [3] (setting [15]), 9.00 to 12.00 in test [4] and 7.36 to 9.00 in test [5] (setting [16]). Also, the EC50 in test [2] turned out to be 0.05 nM.
As for `COC(=O)N[C@H](C(=O)N1CC2(CC2)C[C@H]1c1ncc(-c2ccc3c(c2)C(F)(F)c2cc(-c4ccc5nc([C@@H]6[C@H]7CC[C@H](C7)N6C(=O)[C@H](c6ccccc6)N6CCOCC6)[nH]c5c4)ccc2-3)[nH]1)C(C)C` [Example 97], the pEC50 in test [1] (setting [9]) was 7.36 to 9.00; in test [3] (setting [10]) it was < 8.30; in test [4], 9.00 to 12.00; in test [5] (setting [11]), 7.36 to 9.00. Further, in test [2] (72 h), the EC50 was determined as 0.009 nM.
